In PubChem BioAssay (NCI):
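Protocol summary: plate cells (96-well), add compound at 5 concentrations, incubate 48 h, interpolate endpoints linearly. TGI: concentration producing complete growth inhibition.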

What was measured:
Experiment in all cases: NCI-60 cell line screen, 48 h
[1] = system: SF-539 CNS
[2] = system: HCT-15 colon
[3] = system: SF-295 CNS
[4] = system: SK-OV-3 ovarian
[5] = system: UACC-62 melanoma
[6] = system: SK-MEL-2 melanoma
[7] = system: OVCAR-3 ovarian
[8] = system: COLO 205 colon
[9] = system: OVCAR-5 ovarian
[10] = system: HCC-2998 colon
[11] = system: DU-145 prostate
[12] = system: RXF 393 renal
[13] = system: HL-60(TB) leukemia
[14] = system: HCT-116 colon
[15] = system: HOP-92 NSCLC
[16] = system: SK-MEL-5 melanoma
[17] = system: IGROV1 ovarian
[18] = system: NCI/ADR-RES ovarian
[19] = system: UACC-257 melanoma
[20] = system: 786-0 renal
[21] = system: PC-3 prostate
[22] = system: EKVX NSCLC
[23] = system: CCRF-CEM leukemia
[24] = system: SF-268 CNS
[25] = system: HOP-62 NSCLC
[26] = system: BT-549 breast
[27] = system: A498 renal
[28] = system: ACHN renal
[29] = system: LOX IMVI melanoma
[30] = system: OVCAR-4 ovarian
[31] = system: MDA-MB-231 breast
[32] = system: RPMI-8226 leukemia
[33] = system: UO-31 renal
[34] = system: HT29 colon
[35] = system: K-562 leukemia
[36] = system: SN12C renal
[37] = system: OVCAR-8 ovarian
[38] = system: TK-10 renal
[39] = system: KM12 colon
[40] = system: CAKI-1 renal
[41] = system: M14 melanoma
[42] = system: SW-620 colon
[43] = system: T-47D breast
[44] = system: A549 NSCLC
[45] = system: SNB-75 CNS
[46] = system: MDA-N
[47] = system: MOLT-4 leukemia
[48] = system: NCI-H226 lung
[49] = system: NCI-H460 lung
[50] = system: HS 578T breast
[51] = system: NCI-H23 lung
[52] = system: NCI-H522 lung
[53] = system: MCF7 breast
[54] = system: MDA-MB-435
[55] = system: SNB-19 CNS
[56] = system: U251 CNS
[57] = system: MALME-3M melanoma
[58] = system: SR leukemia
[59] = system: SK-MEL-28 melanoma

Cc1nc(C)c(C(=O)NNC(=O)Cc2ccccc2)cc1C(=O)NNC(=O)Cc1ccccc1
TGI [1]: > 100 µM | TGI [2]: > 100 µM | TGI [3]: > 100 µM | TGI [4]: > 100 µM | TGI [5]: > 100 µM | TGI [6]: > 100 µM | TGI [7]: > 100 µM | TGI [8]: > 100 µM | TGI [9]: > 100 µM | TGI [10]: > 100 µM | TGI [11]: > 100 µM | TGI [12]: > 100 µM | TGI [13]: > 100 µM | TGI [14]: > 100 µM | TGI [15]: > 100 µM | TGI [16]: > 100 µM | TGI [17]: > 100 µM | TGI [18]: > 100 µM | TGI [19]: > 100 µM | TGI [20]: > 100 µM | TGI [21]: > 100 µM | TGI [22]: > 100 µM | TGI [23]: > 100 µM | TGI [24]: > 100 µM | TGI [25]: > 100 µM | TGI [26]: > 100 µM | TGI [27]: > 100 µM | TGI [28]: > 100 µM | TGI [29]: > 100 µM | TGI [30]: > 100 µM | TGI [31]: > 100 µM | TGI [32]: > 100 µM | TGI [33]: > 100 µM | TGI [34]: > 100 µM | TGI [35]: > 100 µM | TGI [36]: > 100 µM | TGI [37]: > 100 µM | TGI [38]: > 100 µM | TGI [39]: > 100 µM | TGI [40]: > 100 µM | TGI [41]: > 100 µM | TGI [42]: > 100 µM | TGI [43]: > 100 µM | TGI [44]: > 100 µM | TGI [45]: > 100 µM | TGI [46]: > 100 µM | TGI [47]: > 100 µM | TGI [48]: > 100 µM | TGI [49]: > 100 µM | TGI [50]: > 100 µM | TGI [51]: > 100 µM | TGI [52]: > 100 µM | TGI [53]: > 100 µM | TGI [54]: > 100 µM | TGI [55]: > 100 µM | TGI [56]: > 100 µM

O=c1[nH]nc(Cc2ccccc2)n1/N=C/c1c(O)ccc2ccccc12
TGI [1]: 42.9 µM | TGI [2]: > 100 µM | TGI [3]: 69 µM | TGI [5]: > 100 µM | TGI [6]: > 100 µM | TGI [7]: 47.5 µM | TGI [8]: > 100 µM | TGI [10]: > 100 µM | TGI [11]: > 100 µM | TGI [12]: 49.6 µM | TGI [14]: 45.6 µM | TGI [15]: 50.3 µM | TGI [16]: 48.7 µM | TGI [17]: 93.4 µM | TGI [18]: 64.2 µM | TGI [19]: > 100 µM | TGI [20]: 30.3 µM | TGI [21]: 64 µM | TGI [22]: 57.8 µM | TGI [23]: > 100 µM | TGI [24]: 90.6 µM | TGI [26]: > 100 µM | TGI [27]: 47.4 µM | TGI [28]: 84.5 µM | TGI [29]: > 100 µM | TGI [30]: 67.1 µM | TGI [31]: 44.2 µM | TGI [57]: 50.7 µM | TGI [32]: 82.5 µM | TGI [33]: > 100 µM | TGI [34]: 83.9 µM | TGI [35]: 64.4 µM | TGI [36]: > 100 µM | TGI [37]: 51.9 µM | TGI [38]: > 100 µM | TGI [39]: 81.9 µM | TGI [40]: 88.8 µM | TGI [42]: > 100 µM | TGI [43]: 77.1 µM | TGI [44]: > 100 µM | TGI [58]: 59.9 µM | TGI [45]: 79.2 µM | TGI [46]: > 100 µM | TGI [47]: 79.2 µM | TGI [48]: 73.6 µM | TGI [50]: 81.1 µM | TGI [51]: > 100 µM | TGI [52]: 35.5 µM | TGI [53]: > 100 µM | TGI [54]: > 100 µM | TGI [55]: 46.5 µM | TGI [56]: 38.6 µM

COc1cc(O)c2c(O)c3c(c4c2c1[C@]1(C4)C(C)=CCCC1(C)C)[C@H](O)[C@@]1(O)CC(=O)C(C(N)=O)=C(O)[C@@]1(O)C3=O
TGI [1]: 0.965 µM | TGI [2]: 1.45 µM | TGI [3]: 1.07 µM | TGI [4]: 1.43 µM | TGI [5]: 1.95 µM | TGI [6]: 0.695 µM | TGI [7]: 1.38 µM | TGI [8]: 0.24 µM | TGI [9]: 1.23 µM | TGI [11]: 2.43 µM | TGI [12]: 2.13 µM | TGI [13]: 0.485 µM | TGI [14]: 1.3 µM | TGI [15]: 1.6 µM | TGI [16]: 0.399 µM | TGI [17]: 1.94 µM | TGI [18]: 1.5 µM | TGI [19]: 0.931 µM | TGI [20]: 1.62 µM | TGI [21]: 0.834 µM | TGI [22]: 1.06 µM | TGI [23]: 0.185 µM | TGI [24]: 1.81 µM | TGI [25]: 1.51 µM | TGI [26]: 1.54 µM | TGI [27]: 0.743 µM | TGI [28]: 1.19 µM | TGI [29]: 1.71 µM | TGI [30]: 1.39 µM | TGI [31]: 1.17 µM | TGI [57]: 0.675 µM | TGI [32]: 1.18 µM | TGI [33]: 1.27 µM | TGI [34]: 1.08 µM | TGI [35]: 1.52 µM | TGI [36]: 1.25 µM | TGI [59]: 2.15 µM | TGI [37]: 1.73 µM | TGI [38]: 1.18 µM | TGI [39]: 1.24 µM | TGI [40]: 0.972 µM | TGI [41]: 1.58 µM | TGI [42]: 1.2 µM | TGI [43]: 1.81 µM | TGI [44]: 1.38 µM | TGI [58]: 1.45 µM | TGI [45]: 0.794 µM | TGI [46]: 1.72 µM | TGI [47]: 1.76 µM | TGI [48]: 0.951 µM | TGI [49]: 0.664 µM | TGI [50]: 2.25 µM | TGI [51]: 1.34 µM | TGI [52]: 0.332 µM | TGI [53]: 1.23 µM | TGI [54]: 1.2 µM | TGI [55]: 1.94 µM | TGI [56]: 1.17 µM

Cn1c2ccccc2c(=S)c2ccccc21
TGI [1]: > 100 µM | TGI [2]: > 100 µM | TGI [3]: > 100 µM | TGI [4]: > 100 µM | TGI [5]: > 100 µM | TGI [6]: > 100 µM | TGI [7]: > 100 µM | TGI [8]: > 100 µM | TGI [9]: > 100 µM | TGI [10]: > 100 µM | TGI [11]: > 100 µM | TGI [12]: > 100 µM | TGI [14]: > 100 µM | TGI [15]: > 100 µM | TGI [16]: > 100 µM | TGI [17]: > 100 µM | TGI [18]: > 100 µM | TGI [19]: > 100 µM | TGI [20]: > 100 µM | TGI [21]: > 100 µM | TGI [22]: > 100 µM | TGI [23]: > 100 µM | TGI [24]: > 100 µM | TGI [25]: > 100 µM | TGI [26]: > 100 µM | TGI [27]: > 100 µM | TGI [28]: > 100 µM | TGI [29]: > 100 µM | TGI [31]: > 100 µM | TGI [32]: > 100 µM | TGI [33]: > 100 µM | TGI [34]: > 100 µM | TGI [35]: > 100 µM | TGI [36]: > 100 µM | TGI [59]: > 100 µM | TGI [37]: > 100 µM | TGI [38]: > 100 µM | TGI [39]: > 100 µM | TGI [40]: > 100 µM | TGI [41]: > 100 µM | TGI [42]: > 100 µM | TGI [43]: > 100 µM | TGI [44]: > 100 µM | TGI [58]: > 100 µM | TGI [45]: > 100 µM | TGI [46]: > 100 µM | TGI [47]: > 100 µM | TGI [48]: > 100 µM | TGI [49]: > 100 µM | TGI [50]: > 100 µM | TGI [51]: > 100 µM | TGI [52]: > 100 µM | TGI [53]: > 100 µM | TGI [54]: > 100 µM | TGI [55]: > 100 µM | TGI [56]: > 100 µM
